Data as given in the NIST ThermoML archive (doi:10.1016/j.jct.2017.09.022).
± gives the expanded uncertainty stated by the source.

Assay: molar heat capacity at constant pressure
Settings: 101.33 kPa, Crystal, Small (less than 1 g) adiabatic calorimetry

C[C@@H](O)[C@H](N)C(=O)O [L-threonine]
Settings | molar heat capacity at constant pressure [J/K/mol]
145.26 K | 88.8 ± 0.67
146.21 K | 89.13 ± 0.67
147.15 K | 89.63 ± 0.67
148.1 K | 90.13 ± 0.67
149.05 K | 90.63 ± 0.67
150 K | 90.96 ± 0.67
150.93 K | 91.38 ± 0.67
151.88 K | 91.87 ± 0.67
152.83 K | 92.21 ± 0.67
153.78 K | 92.79 ± 0.67
154.71 K | 93.21 ± 0.67
155.66 K | 93.7 ± 0.67
156.61 K | 94.2 ± 0.67
157.55 K | 94.54 ± 0.67
158.5 K | 94.87 ± 0.67
159.44 K | 95.37 ± 0.67
160 K | 95.62 ± 0.67
160.38 K | 95.7 ± 0.75
161.33 K | 96.12 ± 0.75
162.27 K | 96.7 ± 0.75
163.21 K | 97.03 ± 0.75
164.16 K | 97.53 ± 0.75
165.1 K | 98.03 ± 0.75
166.02 K | 98.36 ± 0.75
166.96 K | 98.78 ± 0.75
167.9 K | 99.11 ± 0.75
168.84 K | 99.69 ± 0.75
169.78 K | 100.02 ± 0.75
170 K | 100.19 ± 0.83
170.72 K | 100.44 ± 0.75
171.66 K | 100.85 ± 0.75
172.6 K | 101.27 ± 0.75
173.54 K | 101.6 ± 0.75
174.48 K | 102.1 ± 0.75
175.42 K | 102.6 ± 0.75
176.34 K | 103.02 ± 0.75
177.28 K | 103.43 ± 0.75
178.21 K | 103.76 ± 0.75
179.15 K | 104.35 ± 0.75
180 K | 104.6 ± 0.83
180.08 K | 104.6 ± 0.75
180.99 K | 104.93 ± 0.75
181.93 K | 105.34 ± 0.75
182.86 K | 105.84 ± 0.75
183.79 K | 106.34 ± 0.75
184.73 K | 106.67 ± 0.75
185.66 K | 107.09 ± 0.75
186.59 K | 107.51 ± 0.75
187.52 K | 107.92 ± 0.75
188.45 K | 108.25 ± 0.83
189.38 K | 108.75 ± 0.83
190 K | 109 ± 0.83
190.32 K | 109.09 ± 0.83
191.25 K | 109.5 ± 0.83
192.18 K | 110 ± 0.83
193.1 K | 110.25 ± 0.83
194.03 K | 110.67 ± 0.83
194.96 K | 111.08 ± 0.83
195.86 K | 111.5 ± 0.83
196.79 K | 111.83 ± 0.83
197.72 K | 112.33 ± 0.83
198.65 K | 112.66 ± 0.83
199.57 K | 112.99 ± 0.83
200 K | 113.33 ± 0.83
200.62 K | 113.49 ± 0.83
201.78 K | 114.07 ± 0.83
202.93 K | 114.57 ± 0.83
204.09 K | 115.07 ± 0.83
205.25 K | 115.65 ± 0.83
206.41 K | 116.15 ± 0.83
207.57 K | 116.57 ± 0.83
208.73 K | 117.07 ± 0.83
209.9 K | 117.57 ± 0.83
210 K | 117.57 ± 0.83
211.06 K | 118.07 ± 0.83
212.23 K | 118.65 ± 0.83
213.35 K | 119.06 ± 0.83
214.52 K | 119.56 ± 0.83
215.69 K | 119.98 ± 0.83
216.86 K | 120.48 ± 0.83
218.03 K | 120.89 ± 0.83
219.2 K | 121.47 ± 0.91
220 K | 121.81 ± 0.83
220.37 K | 121.97 ± 0.91
221.54 K | 122.56 ± 0.91
222.71 K | 122.97 ± 0.91
223.89 K | 123.47 ± 0.91
225.06 K | 123.97 ± 0.91
226.24 K | 124.55 ± 0.91
227.41 K | 125.05 ± 0.91
228.59 K | 125.47 ± 0.91
229.77 K | 125.96 ± 0.91
230 K | 126.13 ± 1
230.95 K | 126.38 ± 0.91
232.1 K | 126.96 ± 0.91
233.28 K | 127.54 ± 0.91
234.46 K | 128.29 ± 0.91
235.64 K | 128.62 ± 0.91
236.82 K | 129.04 ± 0.91
238 K | 129.62 ± 0.91
239.18 K | 130.04 ± 0.91
240 K | 130.37 ± 1
240.37 K | 130.54 ± 0.91
241.55 K | 131.04 ± 0.91
242.74 K | 131.45 ± 0.91
243.92 K | 132.03 ± 0.91
245.11 K | 132.53 ± 0.91
246.3 K | 132.95 ± 0.91
247.49 K | 133.61 ± 1
248.68 K | 134.03 ± 1
249.87 K | 134.53 ± 1
250 K | 134.69 ± 1
251.05 K | 134.94 ± 1
252.25 K | 135.36 ± 1
253.44 K | 135.86 ± 1
254.64 K | 136.69 ± 1
255.83 K | 137.11 ± 1
257.02 K | 137.94 ± 1
258.22 K | 138.44 ± 1
259.42 K | 138.77 ± 1
260 K | 138.93 ± 1
260.62 K | 139.27 ± 1
261.82 K | 139.85 ± 1
263.02 K | 140.35 ± 1
264.22 K | 140.68 ± 1
265.42 K | 141.43 ± 1
266.63 K | 142.01 ± 1
267.84 K | 142.43 ± 1
269.05 K | 142.93 ± 1
270 K | 143.26 ± 1
270.25 K | 143.34 ± 1
271.46 K | 144.09 ± 1
272.67 K | 144.42 ± 1
273.88 K | 145.17 ± 1
275.09 K | 145.5 ± 1
276.3 K | 145.92 ± 1
277.52 K | 146.42 ± 1.1
278.73 K | 146.83 ± 1.1
279.95 K | 147.5 ± 1.1
280 K | 147.58 ± 1
281.17 K | 147.91 ± 1.1
282.39 K | 148.5 ± 1.1
283.61 K | 149 ± 1.1
284.84 K | 149.49 ± 1.1
286.06 K | 149.99 ± 1.1
287.29 K | 150.57 ± 1.1
288.48 K | 151.16 ± 1.1
289.71 K | 151.74 ± 1.1
290 K | 151.82 ± 1
290.94 K | 152.24 ± 1.1
292.17 K | 152.65 ± 1.1
293.4 K | 153.57 ± 1.1
294.63 K | 153.65 ± 1.1
295.86 K | 154.4 ± 1.1
297.1 K | 154.82 ± 1.1
298.15 K | 155.31 ± 1.2
298.33 K | 155.4 ± 1.1
299.57 K | 155.98 ± 1.1
300 K | 155.98 ± 1.2
301.28 K | 156.31 ± 1.1
303.43 K | 157.14 ± 1.1
305.56 K | 157.97 ± 1.1
307.69 K | 158.56 ± 1.1
309.8 K | 159.55 ± 1.2
310 K | 159.55 ± 1.2
311.9 K | 160.3 ± 1.2
313.99 K | 161.13 ± 1.2
316.05 K | 161.88 ± 1.2
318.12 K | 162.8 ± 1.2
320 K | 163.46 ± 1.2
320.16 K | 163.55 ± 1.2
322.2 K | 164.21 ± 1.2
324.22 K | 164.88 ± 1.2
326.23 K | 165.71 ± 1.2
328.22 K | 166.29 ± 1.2
330 K | 166.87 ± 1.2
330.18 K | 166.95 ± 1.2
332.14 K | 167.54 ± 1.2
333.96 K | 168.2 ± 1.2
335.89 K | 168.95 ± 1.2
337.81 K | 169.7 ± 1.2
339.72 K | 170.36 ± 1.2
340 K | 170.61 ± 1.2
341.6 K | 171.28 ± 1.2
343.43 K | 172.36 ± 1.2
345.28 K | 172.77 ± 1.2
347.12 K | 173.69 ± 1.2
348.93 K | 174.44 ± 1.2
350 K | 174.94 ± 1.2
350.73 K | 175.19 ± 1.2
352.45 K | 175.85 ± 1.2
354.22 K | 176.68 ± 1.2
355.96 K | 177.35 ± 1.2
357.68 K | 177.93 ± 1.2
359.39 K | 178.59 ± 1.2
360 K | 178.76 ± 1.2
361.08 K | 179.26 ± 1.2
362.43 K | 179.59 ± 1.2
364.01 K | 180.17 ± 1.2
365.64 K | 180.84 ± 1.2
367.26 K | 181.17 ± 1.2
368.85 K | 181.84 ± 1.2
370 K | 182.25 ± 1.3
370.42 K | 182.5 ± 1.2
371.97 K | 182.83 ± 1.2
